Laboratory results from ChEMBL document CHEMBL6121036, “Evaluation of Cereblon-Directing Warheads for the Development of Orally Bioavailable PROTACs” (J Med Chem, 2025).
≈ marks a conversion by molar mass, not a printed value. Each block holds one compound with its values, some of them ahead of it. Calls of active or inactive are those of the source. No cut-off for these calls is given here.

Columns and labels:
[1] = Effect on FYTTD1 level in human MV4-11 cells assessed as fold change at 100 nM measured after 4 hrs; type: functional
[2] = Effect on BRD3 level in human MV4-11 cells assessed as fold change at 100 nM measured after 4 hrs; type: functional
HEK293 = assay: Cytotoxicity against HEK293 cells expressing LgBiT fused HiBiT-BRD2 measured after 24 hrs by cell titer-glo assay; type: toxicity, cell-based; conditions: human, hek293, 24 h
HD-MB03 = assay: Cytotoxicity against human HD-MB03 cells assessed as reduction in cell viability incubated for 72 hrs by cell-titer glo assay; type: functional, cell-based; conditions: HD-MB03, 72 h
[3] = biological target: T1, Protein cereblon/Bromodomain-containing protein 2 (Homo sapiens) (UniProt P25440+Q96SW2); assay: PROTAC activity at CRBN/Hibit-tagged CRISPR BRD2 (unknown origin) expressed in HEK293 cells coexpressing LgBiT assessed as degradation of BRD2 by […] glo-max assay relative to control; type: cell-based
[4] = biological target: T2, Protein cereblon/Bromodomain-containing protein 3 (Homo sapiens) (UniProt Q15059+Q96SW2); assay: PROTAC activity at CRBN/Hibit-tagged CRISPR BRD3 (unknown origin) expressed in HEK293 cells co-expressing LgBiT assessed as degradation of BRD3 by […] glo-max assay relative to control; type: cell-based
[5] = Effect on MCL1 level in human MV4-11 cells assessed as fold change at 100 nM measured after 4 hrs; type: functional
[6] = Effect on CDC42EP3 level in human MV4-11 cells assessed as fold change at 100 nM measured after 4 hrs; type: functional
[7] = biological target: T3, Protein cereblon/Bromodomain-containing protein 4 (Homo sapiens, UniProt O60885+Q96SW2); assay: PROTAC activity at CRBN/Hibit-tagged CRISPR BRD4 (unknown origin) expressed in HEK293 cells co-expressing LgBiT assessed as degradation of BRD4 by […] glo-max assay; type: cell-based
[8] = Kinetic aqueous solubility of the compound at pH 7.4; type: physicochemical; conditions: read-out: Kinetic_solubility
[9] = Effect on TP53 level in human MV4-11 cells assessed as fold change at 100 nM measured after 4 hrs; type: functional
[10] = biological target: T3, Protein cereblon/Bromodomain-containing protein 4; assay: PROTAC activity at CRBN/Hibit-tagged CRISPR BRD4 (unknown origin) expressed in HEK293 cells co-expressing LgBiT assessed as degradation of BRD4 measured after 18 to 24 hrs by […] glo-max assay; type: cell-based; conditions: time 18-24 hrs
[11] = Effect on FGL2 level in human MV4-11 cells assessed as fold change at 100 nM measured after 4 hrs; type: functional
[12] = Effect on MYC level in human MV4-11 cells assessed as fold change at 100 nM measured after 4 hrs; type: functional
[13] = Effect on RNF166 level in human MV4-11 cells assessed as fold change at 100 nM measured after 4 hrs; type: functional
[14] = AUC last in female CD1 mouse at 10 mg/kg, po measured upto 24 hrs by LC-MS/MS analysis; type: ADME, organism-based; conditions: in vivo
MV4-11 [15] = assay: Cytotoxicity against human MV4-11 cells assessed as reduction in cell viability incubated for 72 hrs by cell-titer glo assay; type: functional, cell-based; conditions: MV4-11, 72 h
[16] = biological target: T1, Protein cereblon/Bromodomain-containing protein 2 (Homo sapiens); assay: PROTAC activity at CRBN/Hibit-tagged CRISPR BRD2 (unknown origin) expressed in HEK293 cells coexpressing LgBiT assessed as degradation of BRD2 by […] glo-max assay; type: cell-based
MV4-11 [17] = assay: Upregulation of ZBTB21 level in human MV4-11 cells at 100 nM incubated for 30 mins; type: functional, cell-based
[18] = biological target: T3, Protein cereblon/Bromodomain-containing protein 4; assay: PROTAC activity at CRBN/Hibit-tagged BRD4 (unknown origin) expressed in HEK293 cells co-expressing LgBiT assessed as degradation rate incubated for 24 hrs by […] glo-max assay; type: cell-based
[19] = Effect on NOP53 level in human MV4-11 cells assessed as fold change at 100 nM measured after 4 hrs; type: functional
[20] = Effect on ZBTB21 level in human MV4-11 cells assessed as fold change at 100 nM measured after 4 hrs; type: functional
[21] = Effect on NSA2 level in human MV4-11 cells assessed as fold change at 100 nM measured after 4 hrs; type: functional
[22] = Effect on BRD2 level in human MV4-11 cells assessed as fold change at 100 nM measured after 4 hrs; type: functional
[23] = Downregulation of BRD3 protein level in human MV4-11 cells at 100 nM incubated for 4 hrs relative to control; type: functional
[24] = biological target: T2, Protein cereblon/Bromodomain-containing protein 3 (Homo sapiens); assay: PROTAC activity at CRBN/Hibit-tagged CRISPR BRD3 (unknown origin) expressed in HEK293 cells co-expressing LgBiT assessed as degradation of BRD3 by […] glo-max assay; type: cell-based
[25] = Downregulation of BRD4 protein level in human MV4-11 cells at 100 nM incubated for 4 hrs relative to control; type: functional
[26] = Cmax in female CD1 mouse at 10 mg/kg, po measured upto 24 hrs by LC-MS/MS analysis; type: ADME, organism-based; conditions: in vivo
[27] = Effect on PLK1 level in human MV4-11 cells assessed as fold change at 100 nM measured after 4 hrs; type: functional
[28] = Stability in mouse plasma assessed as half life by UPLC-MS/MS analysis; type: ADME, cell-free
[29] = Effect on PLAU level in human MV4-11 cells assessed as fold change at 100 nM measured after 4 hrs; type: functional
[30] = biological target: T2, Protein cereblon/Bromodomain-containing protein 3 (Homo sapiens); assay: PROTAC activity at CRBN/Hibit-tagged CRISPR BRD3 (unknown origin) expressed in HEK293 cells co-expressing LgBiT assessed as degradation of BRD3 measured after 13 to 16 hrs by […] glo-max assay; type: cell-based; conditions: time 13-16 hrs
[31] = Effect on ZFP36L2 level in human MV4-11 cells assessed as fold change at 100 nM measured after 4 hrs; type: functional
[32] = biological target: Protein cereblon (Homo sapiens) (UniProt Q96SW2); assay: Binding affinity to CRBN (unknown origin)
[33] = Effect on CCND3 level in human MV4-11 cells assessed as fold change at 100 nM measured after 4 hrs; type: functional
[34] = Effect on CCNF level in human MV4-11 cells assessed as fold change at 100 nM measured after 4 hrs; type: functional
[35] = biological target: T3, Protein cereblon/Bromodomain-containing protein 4; assay: PROTAC activity at CRBN/Hibit-tagged CRISPR BRD4 (unknown origin) expressed in HEK293 cells co-expressing LgBiT assessed as degradation of BRD4 by […] glo-max assay relative to control; type: cell-based
[36] = biological target: T3, Protein cereblon/Bromodomain-containing protein 4; assay: PROTAC activity at CRBN/Hibit-tagged BRD4 (unknown origin) expressed in HEK293 cells co-expressing LgBiT assessed as degradation of BRD4 incubated for 24 hrs by […] glo-max assay; type: cell-based
[37] = Permeability in MDCK-II cells incubated for 1 hr by UPLC/MS/UV analysis; type: ADME, cell-based, Canis lupus familiaris; conditions: dog, read-out: permeability
[38] = biological target: T1, Protein cereblon/Bromodomain-containing protein 2 (Homo sapiens); assay: PROTAC activity at CRBN/Hibit-tagged CRISPR BRD2 (unknown origin) expressed in HEK293 cells coexpressing LgBiT assessed as degradation of BRD2 measured after 10 to 14 hrs by […] glo-max assay; type: cell-based; conditions: time 10-14 hrs
[39] = biological target: T3, Protein cereblon/Bromodomain-containing protein 4; assay: PROTAC activity at CRBN/Hibit-tagged BRD4 (unknown origin) expressed in HEK293 cells co-expressing LgBiT assessed as degradation of BRD4 incubated for 24 hrs by […] glo-max assay relative to control; type: cell-based
[40] = Effect on BRD4 level in human MV4-11 cells assessed as fold change at 100 nM measured after 4 hrs; type: functional
[41] = biological target: T4, Protein cereblon/Bromodomain-containing protein 4/DNA damage-binding protein 1 (Homo sapiens) (UniProt O60885+Q96SW2+Q16531); assay: Binding affinity to his-tagged CRBN/DDB1/GST-tagged BRD4 (49 to 170 residues)(unknown origin) assessed as ternary complex formation (AUC) incubated for 1 hr by luminescence based Alphascreen assay; type: protein assay
[42] = Downregulation of BRD2 protein level in human MV4-11 cells at 100 nM incubated for 4 hrs relative to control; type: functional
MV4-11 [43] = assay: Upregulation of MIER1 level in human MV4-11 cells at 100 nM incubated for 30 mins; type: functional, cell-based
[44] = Effect on AURKA level in human MV4-11 cells assessed as fold change at 100 nM measured after 4 hrs; type: functional
[45] = Metabolic stability in mouse liver microsomes assessed as half life; type: ADME, Microsome; conditions: liver microsomes
[46] = Half life in mouse at 50 mg/kg, ip; type: ADME, organism-based; conditions: in vivo
[47] = biological target: T4, Protein cereblon/Bromodomain-containing protein 4/DNA damage-binding protein 1 (Homo sapiens); assay: Binding affinity to his-tagged CRBN/DDB1/GST-tagged BRD4 (49 to 170 residues)(unknown origin) assessed as ternary complex formation by measuring AUC incubated for 1 hr by luminescence based Alphascreen assay; type: protein assay

Activity [3]: > 95%
Activity [4]: > 95%
Activity [7]: Active
solubility kinetic [8]: 14.8 µM (≈ 12 µg/mL)
Activity [10]: Active
AUC(0-t) at 24 h [14]: 181 ng·h/mL
Activity [16]: Active
Activity [18]: 0.395 fRLU/hr
Activity [24]: Active
Cmax [26]: 70 ng/mL
half-life [28]: 822 min
Activity [30]: Active
Activity [32]: Active
Activity [35]: > 90%
DC50 [36]: 0.25 nM
Papp at 1 h [37]: 1.2 ×10⁻⁶ cm/s
Activity [38]: Active
Emax [39]: 94%
SMILES: Cc1sc2c(c1C)C(c1ccc(Cl)cc1)=N[C@@H](CC(=O)N1CCC(CN3CCN(c4ccc5c(c4)oc(=O)n5C4CCC(=O)NC4=O)CC3)CC1)c1nnc(C)n1-2 (stereo partly drawn)
fold change (FC) [1]: -1.64
fold change (FC) [2]: -4.05
Activity (HEK293): Non-toxic
IC50 (HD-MB03): 0.38 nM
fold change (FC) [5]: -1.14
fold change (FC) [6]: -1.17
fold change (FC) [9]: 1.94
fold change (FC) [11]: -0.81
fold change (FC) [12]: -2.38
fold change (FC) [13]: -0.64
IC50 (MV4-11 [15]): 0.04 nM
Activity (MV4-11 [17]): Active
fold change (FC) [19]: -0.92
fold change (FC) [20]: -1.77
fold change (FC) [21]: -1.09
fold change (FC) [22]: -3.2
Activity [23]: 90%
Activity [25]: 90%
fold change (FC) [27]: -0.8
fold change (FC) [29]: -1.13
fold change (FC) [31]: -1.14
fold change (FC) [33]: -1.03
fold change (FC) [34]: -1.74
fold change (FC) [40]: -3.75
Activity [41]: Active
Activity [42]: 90%
Activity (MV4-11 [43]): Active
fold change (FC) [44]: -0.94

half-life [45]: 2.4 min
solubility kinetic [8]: 24.4 µM (≈ 17.8 µg/mL)
half-life [46]: 25.8 min
DC50 [36]: 25 nM
Emax [39]: 75.7%
SMILES: Cc1sc2c(c1C)C(c1ccc(Cl)cc1)=N[C@@H](CC(=O)NCCCCCNC(=O)COc1ccc(C3CCC(=O)NC3=O)cc1)c1nnc(C)n1-2 (stereo partly drawn)
Activity (HEK293): Non-toxic
AUC [47]: 298000

half-life [45]: 9.6 min
Activity [3]: > 95%
Activity [4]: > 95%
Activity [7]: Active
solubility kinetic [8]: 10.5 µM (≈ 8.64 µg/mL)
Activity [10]: Active
AUC(0-t) at 24 h [14]: 3320 ng·h/mL
Activity [16]: Active
Activity [18]: 0.204 fRLU/hr
Activity [24]: Active
Cmax [26]: 1160 ng/mL
half-life [28]: 1070 min
Activity [30]: Active
Activity [32]: Active
Activity [35]: > 90%
DC50 [36]: 1.08 nM
Papp at 1 h [37]: 0.79 ×10⁻⁶ cm/s
Activity [38]: Active
Emax [39]: 95.5%
SMILES: Cc1sc2c(c1C)C(c1ccc(Cl)cc1)=N[C@@H](CC(=O)N1CCC(CN3CCN(c4ccc5c(c4)C(=O)N(C4CCC(=O)NC4=O)C5=O)CC3)CC1)c1nnc(C)n1-2 (stereo partly drawn)
fold change (FC) [1]: -1.73
fold change (FC) [2]: -4.09
Activity (HEK293): Non-toxic
IC50 (HD-MB03): 9.29 nM
fold change (FC) [5]: -1.17
fold change (FC) [6]: -1.24
fold change (FC) [9]: 1.91
fold change (FC) [11]: -1
fold change (FC) [12]: -1.29
fold change (FC) [13]: -1.26
IC50 (MV4-11 [15]): 0.82 nM
fold change (FC) [19]: -0.88
fold change (FC) [20]: -0.06
fold change (FC) [21]: -1.1
fold change (FC) [22]: -3.3
Activity [23]: 90%
Activity [25]: 90%
fold change (FC) [27]: -0.79
fold change (FC) [29]: -1.1
fold change (FC) [31]: -1.07
fold change (FC) [33]: -0.9
fold change (FC) [34]: -1.64
fold change (FC) [40]: -4.11
Activity [41]: Active
Activity [42]: 90%
fold change (FC) [44]: -0.95
